≈ marks a conversion by molar mass, not a printed value. Where two headings read alike, the source gives them in different places.
Legend:
[1] = test system: Acinotebacter baumannii RUH 134; type: cell-based; conditions: 24 h
Description: (§1) Peptide MICs were determined against strains of several bacterial species, including Gram-negative and Gram-positive pathogens (Table 1 and 2). Activity of tetra-branched D-M33 was retained against MDR strains with various resistance mechanisms (such as extended-spectrum beta-lactamases and carbapenemases), including MDR P. aeruginosa strains from CF patients. The antimicrobial activity of tetra-branched D-M33 appeared slightly better with respect to tetra-branched L-M33 for MDR strains of Pseudomonas and one strain of Klebsiella and sensitively better respect to tetra-branched L-M33 for the two strains of Staphyloccoccus aureus reported in Table 1.

[2] = test system: Acinotebacter baumannii RUH 875; type: cell-based; conditions: 24 h
Description: as §1

E. coli ATCC 25922 = type: cell-based; conditions: ATCC 25922, 24 h
Description: as §1

[3] = test system: Klebsiella pneumoniae ATCC 13833; type: cell-based; conditions: ATCC 13833, 24 h
Description: as §1

P. aeruginosa PAO-1 = type: cell-based; conditions: PAO-1, 24 h
Description: as §1

[4] = test system: P. aeruginosa VenM rugosa 05/04/2005; type: cell-based; conditions: VenM rugosa 05/04/2005, 24 h
Description: as §1

[5] = test system: Staphylococcus aureus 3851; conditions: 3851, 24 h
Description: (§2) Minimum Inhibitory Concentration (MIC) was determined by a standard microdilution assay as recommended by the National Committee for Clinical Laboratory Standards (NCCLS) using cation-supplemented Mueller-Hinton (MH) broth (Oxoid Ltd. Basingstoke, UK) and a bacterial inoculum of 5×10^4 CFU per well, in a final volume of 100 μl. Results were recorded by visual inspection after 24 h of incubation at 37° C.

human erythrocytes = experiment: Haemolysis of human erythrocytes (method of Parpart); type: cell-based; conditions: for haemolytic activity (percentage of haemolysis): red cells of human
Description: Effect of tetra-branched L-M33, D-M33 and monomeric Indolicidin on haemolysis of human erythrocytes. The figures show the haemolytic activity of the three peptides on human erythrocytes evaluated by means of erythrocyte osmotic resistance of Parpart method in NaCl. The percentage of haemolysis is calculated by means of a calibration curve obtained by incubating erythrocytes with increasing concentrations of NaCl. […] The percentage of haemolysis of untreated blood after 19 hours (control) is very limited (<1%).
Haemolysis of fresh human erythrocytes was determined using the method of Parpart, summarized as follows. A calibration curve was constructed by suspending fresh human erythrocytes in phosphate buffer (pH 7.4, 110 mM sodium phosphate) with various concentrations of NaCl and incubated for 30 min at room temperature. Samples were centrifuged at 500×g for 5 minutes, and haemoglobin release was monitored by measuring the absorbance of supernatants at 540 nm. The absorbance obtained with 0.1% NaCl corresponded to 100% lysis and that with 1% NaCl, to 0% lysis. Peptides dissolved in PBS were added to human erythrocyte solution at several concentrations. The resulting suspension was incubated separately at 37° C. for 2 h and 24 h. Release of hemoglobin was monitored by measuring the absorbance of the suspernatant at 540 nm after centrifuging and haemolysis percentage was calculated using the calibration curve.

Aureolysin = Aureolysin (Staphylococcus aureus, UniProt P81177); type: in vitro ADME; conditions: incubation with S. aureus Aureolysin, 1 hour / 24 hours
Description: HPLC profiles of tetra-branched peptides L-M33 (A) and D-M33 (B) after incubation with the protease Aureolysin derived from S. aureus.

E. faecalis ATCC 29212 = conditions: ATCC 29212, 24 h
Description: as §2

E. faecalis FI74B4 VSE = conditions: 24 h
Description: as §2

E. faecium FI81B1 VRE = conditions: 24 h
Description: as §2

E. faecium FI81B2 VSE = conditions: 24 h
Description: as §2

S. agalactiae ATCC 13813 = conditions: ATCC 13813, 24 h
Description: as §2

S. aureus ATCC 29213 = conditions: ATCC 29213, 24 h
Description: as §2

S. epidermidis 4761/1 = conditions: 4761/1, 24 h
Description: as §2

S. epidermidis 6154 = conditions: 6154, 24 h
Description: as §2

S. pneumoniae 47C12 = conditions: 47C12, 24 h
Description: as §2

S. pneumoniae 47D22 = conditions: 47D22, 24 h
Description: as §2

S. pneumoniae ATCC 49619 = conditions: ATCC 49619, 24 h
Description: as §2

S. capitis ATCC 27840 = experiment: MIC, microdilution assay; type: cell-based; conditions: S. capitis ATCC 27840, reference strain
Description: as §2

[6] = test system: S. epidermidis ATCC 14990; experiment: MIC, microdilution assay; type: cell-based; conditions: S. epidermidis ATCC 14990, reference strain
Description: as §2

E. coli TG1 = experiment: In vivo antibacterial activity, lethal E. coli infection in mice; conditions: Balb-c mice, LD100 E. coli ip; single dose 10 mg/Kg ip 1 hour later
Description: (§3) In vivo antibacterial activity of tetra-branched D-M33 peptide. Balb-c mice (20 g) were intra-peritoneally injected with a lethal amount of E. coli TG1 cells (1×10^9 CFU). Continuous line (Ctr) indicates mice only injected ip with bacteria and no D-M33. Broken line indicates mice injected ip with bacteria and a single injection of D-M33 peptide 10 mg/Kg 1 hour later.
(§4) Tetra-branched D-M33 peptide was analysed for its antibacterial activity in mice infected with lethal amounts of the Gram-negative bacterium E. coli or the Gram-positive bacterium S. aureus.
(§5) Balb-c mice were infected with the LD100 of bacteria and treated 1 hour later with the peptide by ip administration.

S. aureus USA 300 = experiment: In vivo antibacterial activity, lethal S. aureus infection in mice; conditions: Balb-c mice, LD100 S. aureus ip; single dose 25 mg/Kg ip 1 hour later
Description: as §3, with “S. aureus USA 300” for “E. coli TG1”, “(5×10^6 CFU) mixed in a 7% mucin solution. Control” for “(1×10^9 CFU). Continuous”, “D-M33” for “Broken”, “25” for “10”, “later. P<0.05.” for “later.”
as §4, §5

C. glabrata ATCC 90030 = conditions: ATCC 90030, 24 h
[7] = test system: C. parapsilosis ATCC 90018; conditions: ATCC 90018, 24 h
C. albicans 9833 = conditions: 9833, 24 h
C. tropicalis 6597 = conditions: 6597, 24 h
C. krusei ATCC 6268 = conditions: ATCC 6268, 24 h
[8] = animals treated ip, peptide dose 100 mg/Kg

Chain of Aureolysin (P81177 209-509): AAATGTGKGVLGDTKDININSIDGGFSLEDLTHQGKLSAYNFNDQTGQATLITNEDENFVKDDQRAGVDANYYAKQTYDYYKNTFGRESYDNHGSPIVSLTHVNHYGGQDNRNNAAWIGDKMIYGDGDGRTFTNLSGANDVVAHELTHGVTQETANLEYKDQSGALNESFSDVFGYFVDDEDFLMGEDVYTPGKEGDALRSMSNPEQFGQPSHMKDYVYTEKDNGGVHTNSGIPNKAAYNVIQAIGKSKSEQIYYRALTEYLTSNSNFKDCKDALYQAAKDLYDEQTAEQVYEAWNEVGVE

CC[C@H](C)[C@H](NC(=O)[C@H](CCCCN)NC(=O)[C@@H](N)CCCCN)C(=O)N[C@@H](CCCNC(=N)N)C(=O)N[C@H](C(=O)N[C@@H](CCCNC(=N)N)C(=O)N[C@@H](CC(C)C)C(=O)N[C@@H](CO)C(=O)N[C@@H](C)C(=O)NCCCC[C@H](NC(=O)[C@H](C)NC(=O)[C@H](CO)NC(=O)[C@H](CC(C)C)NC(=O)[C@H](CCCNC(=N)N)NC(=O)[C@@H](NC(=O)[C@H](CCCNC(=N)N)NC(=O)[C@@H](NC(=O)[C@H](CCCCN)NC(=O)[C@@H](N)CCCCN)[C@@H](C)CC)C(C)C)C(=O)NCCCC[C@H](NC(=O)[C@H](CCCCNC(=O)[C@H](C)NC(=O)[C@H](CO)NC(=O)[C@H](CC(C)C)NC(=O)[C@H](CCCNC(=N)N)NC(=O)[C@@H](NC(=O)[C@H](CCCNC(=N)N)NC(=O)[C@@H](NC(=O)[C@H](CCCCN)NC(=O)[C@@H](N)CCCCN)[C@@H](C)CC)C(C)C)NC(=O)[C@H](C)NC(=O)[C@H](CO)NC(=O)[C@H](CC(C)C)NC(=O)[C@H](CCCNC(=N)N)NC(=O)[C@@H](NC(=O)[C@H](CCCNC(=N)N)NC(=O)[C@@H](NC(=O)[C@H](CCCCN)NC(=O)[C@@H](N)CCCCN)[C@@H](C)CC)C(C)C)C(=O)NCCC(=O)O)C(C)C [L-M33, KKIRVIRLSA, reference compound]
MIC [1]: 1.5 µM (≈ 7.02 µg/mL) | MIC [2]: 1.5 µM (≈ 7.02 µg/mL) | MIC (E. coli ATCC 25922): 1.5 µM (≈ 7.02 µg/mL) | MIC [3]: 1.5 µM (≈ 7.02 µg/mL) | MIC (P. aeruginosa PAO-1): 1.5 µM (≈ 7.02 µg/mL) | MIC [4]: 3 µM (≈ 14 µg/mL) | MIC [5]: 6 µM (≈ 28.1 µg/mL) | haemolytic activity (percentage of haemolysis) (human erythrocytes): < 5% | degradation by protease Aureolysin (HPLC profile) (Aureolysin): degraded after only 1 hour of incubation

Indolicidin [reference compound]
haemolysis, result in words (human erythrocytes; human erythrocytes (FIG. 2)): more haemolytic

CC[C@@H](C)[C@@H](NC(=O)[C@@H](CCCCN)NC(=O)[C@H](N)CCCCN)C(=O)N[C@H](CCCNC(=N)N)C(=O)N[C@@H](C(=O)N[C@H](CCCNC(=N)N)C(=O)N[C@H](CC(C)C)C(=O)N[C@H](CO)C(=O)N[C@H](C)C(=O)NCCCCC(NC(=O)[C@@H](C)NC(=O)[C@@H](CO)NC(=O)[C@@H](CC(C)C)NC(=O)[C@@H](CCCNC(=N)N)NC(=O)[C@H](NC(=O)[C@@H](CCCNC(=N)N)NC(=O)[C@H](NC(=O)[C@@H](CCCCN)NC(=O)[C@H](N)CCCCN)[C@H](C)CC)C(C)C)C(=O)NCCCCC(NC(=O)C(CCCCNC(=O)[C@@H](C)NC(=O)[C@@H](CO)NC(=O)[C@@H](CC(C)C)NC(=O)[C@@H](CCCNC(=N)N)NC(=O)[C@H](NC(=O)[C@@H](CCCNC(=N)N)NC(=O)[C@H](NC(=O)[C@@H](CCCCN)NC(=O)[C@H](N)CCCCN)[C@H](C)CC)C(C)C)NC(=O)[C@@H](C)NC(=O)[C@@H](CO)NC(=O)[C@@H](CC(C)C)NC(=O)[C@@H](CCCNC(=N)N)NC(=O)[C@H](NC(=O)[C@@H](CCCNC(=N)N)NC(=O)[C@H](NC(=O)[C@@H](CCCCN)NC(=O)[C@H](N)CCCCN)[C@H](C)CC)C(C)C)C(=O)NCCC(=O)O)C(C)C (stereo partly drawn) [D-M33, KKIRVRLSA]
MIC [1]: 3 µM (≈ 14 µg/mL) | MIC [2]: 3 µM (≈ 14 µg/mL) | MIC (E. coli ATCC 25922): 1.5 µM (≈ 7.02 µg/mL) | MIC [3]: 0.7 µM (≈ 3.28 µg/mL) | MIC (P. aeruginosa PAO-1): 0.7 µM (≈ 3.28 µg/mL) | MIC [4]: 0.7 µM (≈ 3.28 µg/mL) | MIC (E. faecalis ATCC 29212): 0.7 µM (≈ 3.28 µg/mL) | MIC (E. faecalis FI74B4 VSE): 0.7 µM (≈ 3.28 µg/mL) | MIC (E. faecium FI81B1 VRE): 0.7 µM (≈ 3.28 µg/mL) | MIC (E. faecium FI81B2 VSE): 0.7 µM (≈ 3.28 µg/mL) | MIC (S. agalactiae ATCC 13813): 1.5 µM (≈ 7.02 µg/mL) | MIC (S. aureus ATCC 29213): 3 µM (≈ 14 µg/mL) | MIC (S. epidermidis 4761/1): 0.35 µM (≈ 1.64 µg/mL) | MIC (S. epidermidis 6154): 0.35 µM (≈ 1.64 µg/mL) | MIC (S. pneumoniae 47C12): 12 µM (≈ 56.2 µg/mL) | MIC (S. pneumoniae 47D22): 6 µM (≈ 28.1 µg/mL) | MIC (S. pneumoniae ATCC 49619): 6 µM (≈ 28.1 µg/mL) | MIC [5]: 0.7 µM (≈ 3.28 µg/mL) | MIC (S. capitis ATCC 27840): 0.35 µM (≈ 1.64 µg/mL) | MIC [6]: 0.35 µM (≈ 1.64 µg/mL) | haemolysis, result in words (human erythrocytes): negligible haemolysis grade | haemolytic activity (percentage of haemolysis) (human erythrocytes): < 5% | animals protected from signs of sepsis and death (seven-day survival) (E. coli TG1): 100% | animals protected from signs of sepsis and death (seven-day survival) (S. aureus USA 300): 100% | MIC (C. glabrata ATCC 90030): 12 µM (≈ 56.2 µg/mL) | MIC [7]: 1.5 µM (≈ 7.02 µg/mL) | MIC (C. albicans 9833): 24 µM (≈ 112 µg/mL) | MIC (C. tropicalis 6597): 12 µM (≈ 56.2 µg/mL) | MIC (C. krusei ATCC 6268): 6 µM (≈ 28.1 µg/mL) | apparent toxicity signs [8]: did not produce apparent toxicity signs
